The values below are quoted from earlier work in paper PMC8513935.

Structures are written as SMILES.

Data set [1] can be described thus: derived by the authors as gas->solvent minus gas->water (a hypothetical dry solvent; the ESI), not a two-phase measurement.
Data set [2] in a line: log P octanol/water from commercial databases, averaged (the ESI). The following applies: Octanol (wet), 25 C.
A short description of data set [3]: experimental, compiled by the authors from the literature (the ESI cites the sources).

For the molecule `C=CCCCCCC`, the log K of transfer, water to solvent was 4.72 log10 K in data set [1] (Butyronitrile, 25 C); 4.98 log10 K in data set [1] (Hexadecane, 25 C); 4.76 log10 K in data set [1] (Octan-1-ol(dry), 25 C); 4.73 log10 K in data set [1] (Propionitrile, 25 C); 4.57 log10 K in data set [2]. The log K of transfer, gas to solvent in data set [3] (Butyronitrile, 25 C) was 3.31 log10 K; in data set [3] (Hexadecane, 25 C), 3.57 log10 K; in data set [3] (Octan-1-ol, 25 C) it was 3.35 log10 K; in data set [3] (Propionitrile, 25 C), 3.32 log10 K; in data set [3] (Water, 25 C), -1.41 log10 K.

On to `CCCCCCl`, for which the log K of transfer, water to solvent in data set [1] (Acetone, 25 C) is 3.51 log10 K; in data set [1] (Di-n-butyl ether, 25 C), 3.46 log10 K; in data set [1] (Hexadecane, 25 C), 3.17 log10 K; in data set [1] (Hexane, 25 C), 3.45 log10 K; in data set [1] (Tetrahydrofuran, 25 C), 4.11 log10 K; in data set [2], 3.11 log10 K. Besides, the log K of transfer, gas to solvent in data set [3] (Di-n-butyl ether, 25 C) was 3.51 log10 K; in data set [3] (Hexadecane, 25 C), 3.22 log10 K; in data set [3] (Hexane, 25 C), 3.5 log10 K; in data set [3] (Propanone, 25 C) it was 3.56 log10 K; in data set [3] (Tetrahydrofuran, 25 C) it was 4.16 log10 K; in data set [3] (Water, 25 C), 0.05 log10 K.

On to `O=C1CCCC1`, for which the log K of transfer, water to solvent in data set [1] (1,2-Dichloroethane, 25 C) was 1.14 log10 K; in data set [1] (CCl4, 25 C), 0.61 log10 K; in data set [1] (Di-n-butyl ether, 25 C) it was 0.08 log10 K; in data set [1] (Hexadecane, 25 C), -0.229 log10 K; in data set [1] (Octan-1-ol(dry), 25 C), 0.22 log10 K; in data set [2], 0.38 log10 K. For the same molecule, the log K of transfer, gas to solvent in data set [3] (1,2-Dichloroethane, 25 C) was 4.59 log10 K; in data set [3] (CCl4, 25 C), 4.06 log10 K; in data set [3] (Di-n-butyl ether, 25 C), 3.53 log10 K; in data set [3] (Hexadecane, 25 C) it was 3.22 log10 K; in data set [3] (Octan-1-ol, 25 C) it was 3.67 log10 K; in data set [3] (Water, 25 C) it was 3.45 log10 K.

Take `CC=C(C)C`: the log K of transfer, water to solvent was 3.32 log10 K in data set [1] (2-Methylpropan-2-ol, 25 C); 3.34 log10 K in data set [1] (CCl4, 25 C); 3.22 log10 K in data set [1] (Cyclohexanone, 25 C); 3.19 log10 K in data set [1] (Hexadecane, 25 C); 2.67 log10 K in data set [2]. Besides, the log K of transfer, gas to solvent was 2.36 log10 K in data set [3] (2-Methylpropan-2-ol, 25 C); 2.38 log10 K in data set [3] (CCl4, 25 C); 2.26 log10 K in data set [3] (Cyclohexanone, 25 C); 2.23 log10 K in data set [3] (Hexadecane, 25 C); -0.96 log10 K in data set [3] (Water, 25 C).

`CCC(=O)CC`: the log K of transfer, water to solvent in data set [1] (Cyclohexane, 25 C) is 0.65 log10 K; in data set [1] (Hexadecane, 25 C), 0.311 log10 K; in data set [1] (Octan-1-ol(dry), 25 C), 0.7 log10 K; in data set [2], 0.82 log10 K. Besides, the log K of transfer, gas to solvent is 3.15 log10 K in data set [3] (Cyclohexane, 25 C); 2.81 log10 K in data set [3] (Hexadecane, 25 C); 3.2 log10 K in data set [3] (Octan-1-ol, 25 C); 2.5 log10 K in data set [3] (Water, 25 C).

For the molecule `C1CCOC1`, the log K of transfer, water to solvent in data set [1] (1,2-Dichloroethane, 25 C) was 0.76 log10 K; in data set [1] (Acetone, 25 C), 0.46 log10 K; in data set [1] (CCl4, 25 C), 0.57 log10 K; in data set [1] (Chlorobenzene, 25 C) it was 0.41 log10 K; in data set [1] (Chloroform, 25 C) it was 1.3 log10 K; in data set [1] (Di-n-butyl ether, 25 C), 0.23 log10 K. Moreover, the log K of transfer, water to solvent in data set [1] (Hexadecane, 25 C) was 0.076 log10 K; in data set [1] (Hexane, 25 C) it was 0.14 log10 K; in data set [1] (Methanol, 25 C) it was 0.69 log10 K; in data set [1] (Octan-1-ol(dry), 25 C), 0.3 log10 K; in data set [1] (Propan-1-ol, 25 C) it was 0.34 log10 K; in data set [1] (Propan-2-ol, 25 C), 0.33 log10 K. Moreover, the log K of transfer, water to solvent in data set [1] (Tetrahydrofuran, 25 C) was 0.58 log10 K; in data set [2] it was 0.46 log10 K. Also, the log K of transfer, gas to solvent is 3.32 log10 K in data set [3] (1,2-Dichloroethane, 25 C); 3.13 log10 K in data set [3] (CCl4, 25 C); 2.97 log10 K in data set [3] (Chlorobenzene, 25 C); 3.86 log10 K in data set [3] (Chloroform, 25 C); 2.79 log10 K in data set [3] (Di-n-butyl ether, 25 C); 2.63 log10 K in data set [3] (Hexadecane, 25 C). Besides, the log K of transfer, gas to solvent in data set [3] (Hexane, 25 C) was 2.7 log10 K; in data set [3] (Methanol, 25 C), 3.25 log10 K; in data set [3] (Octan-1-ol, 25 C), 2.86 log10 K; in data set [3] (Propan-1-ol, 25 C), 2.9 log10 K; in data set [3] (Propan-2-ol, 25 C), 2.89 log10 K; in data set [3] (Propanone, 25 C), 3.02 log10 K. For the same molecule, the log K of transfer, gas to solvent is 3.14 log10 K in data set [3] (Tetrahydrofuran, 25 C) and 2.56 log10 K in data set [3] (Water, 25 C).
